Source: US10085955B2, “Methods and compositions for treatment of demyelinating diseases” (Pathologica LLC, priority 2013, dated 2018)
“Also recorded” adds a separate entry of the source.

Columns and labels:
[1] = system: PGE2 production in carrageenan air pouch; experiment: Carrageenan air pouch model; type: in vivo, Lewis rats
From the text: Injection of air subcutaneously will induce the formation of a connective tissue cavity lined with cells that resemble and function like a synovial lining. This method is commonly known as the Air Pouch Model and is a useful animal model of inflammation that can be generated in a relatively short period of time. The air pouch may be created by subcutaneous (SQ) injection of a volume of sterile air in the dorsal neck region. The model may be used to test the efficacy and potency of compounds such as polyamine analogues and polyamine biosynthesis inhibitors such as MGBG in reducing various cellular and biochemical indicators of inflammation when administered as an oral (PO) gavage administration. Healthy Male Lewis rats (Charles River Laboratories, Wilmington, Mass.) weighing between 175-200 g were used. […] A correction factor of 1.49 was used to account for the dihydrochloride salt/monohydrate form of MGBG. […] Air pouches were formed on the dorsum of the rats during the last 4 days of MGBG or vehicle administration prior to carrageenan injection. Briefly, rats were anesthetized with isoflurane, during which dorsal hair was removed and 20 mL of sterile air was injected subcutaneously into the intrascapular region. Pouches were allowed to develop for the next 4 days, with re-inflation (to maintain pouch volume) of pouches 1 day prior to carrageenan injection. One hour prior to carrageenan injection, animals were given their last dose of drug (MGBG, vehicle, naproxen, or dexamethasone). A 1% suspension of carrageenan (2 mL; FMC BioPolyer, Philadelphia, Pa.) suspended in saline was injected into the pouch cavity. At either 3 hours or 24 hours post-carrageenan injection, rats were euthanized by CO2 asphyxiation and 2.5 mL of PBS (Sigma Chemical, St. Louis, Mo.) was injected directly into the pouch. The pouch was opened with surgical scissors and the pouch fluid was collected using a transfer pipette. One aliquot was collected for measurement of total cell count with differential, and the other aliquot for PGE2 determination. […]

CNS-infiltrating cells = experiment: Second MOG EAE protocol, flow cytometric analysis of CNS-infiltrating cells; type: in vivo, C57BL/6 mice; conditions: second study
Method: A second EAE experiment was run substantially as disclosed above, except that fingolimod was dosed at 1 mpk QD, and the pertussis toxin was administered at 165 ng/dose for both injections.
In addition to clinical scoring, flow cytometric analysis was performed on CNS-infiltrating cells from 6 mice in each of the vehicle-, fingolimod- and MGBG-treated groups, as well as in all three mice from the mock-immunized (disease-free) group.
On Day 28, the brain and spinal cord tissue (from 6 of 12 mice from each of the MOG-immunized groups; and from all 3 mice from the mock-immunized group) in the second MOG EAE study were […] infiltrating cells were isolated by Percoll gradient. After isolating infiltrating cells from each mouse separately, cells were placed in culture with phorbol myristate acetate (PMA, 50 ng/mL), ionomycin (0.5 μg/mL) and brefeldin (1 μg/mL) and incubated for 4-5 hours. The cells were then washed and stained for flow cytometric analysis, as specified below. The following analyses were performed (Becton Dickinson FACScan):
Anti-CD4-Cy-5/anti-IL-17A-PE/anti-IFNγ-FITC (Th1/Th17 cells)
Anti-CD4-Cy-5/anti-CD11c-PE/anti-CD45.2-FITC (infiltrating dendritic cells)
Anti-CD11b-Cy-5/anti-IL-12-PE/anti-CD45.2-FITC (M1 macrophages)
Anti-CD11b-Cy-5/anti-CD206-PE/anti-IL-10-FITC (M2 macrophages)
The number of cells positive for relevant stains and stain combinations was computed both as a percentage of the analyzed cells and as the average number of cells per mouse for each group.

in vivo = experiment: in vivo; set-up: species or system Sprague Dawley rats; conditions: rat
Method: Eighteen male Sprague Dawley rats (Charles River) weighing 217-263 g and aged 8-9 weeks were administered the test article, MGBG as either a single bolus intravenous dose of 1 mg/kg (Group 1) or as a single oral gavage dose of 10 mg/kg. A cohort of three animals was sacrificed via CO2 inhalation anesthesia after final blood collection at each of T=2, 4, 12, 24, 36, and 48 hours post-dose. Dose formulation analysis verified administered dose solutions as within 17% of targeted concentration of 10 mg/kg.
Analysis was performed by LC/MS/MS. Pharmacokinetic analyses were performed on the mean MGBG plasma concentration versus time data using the non-compartmental approach (linear trapezoidal rule for AUC calculations). The WinNonlin sparse sampling tool was used for PK calculations. All samples reported as BLQ (Below the Limit of Quantitation, in plasma 2.50 ng/mL) were changed to 0.00 ng/mL for the purpose of analysis.
Additionally, in rats dosed as above with single oral administration of MGBG at 10 mg/kg, immediately following the plasma sample collection for each cohort (i.e., 2, 4, 12, 24, 36, and 48 hours after dosing), three rats were sacrificed, and spleen and liver tissues collected and flask frozen. […] This is consistent with a selective uptake mechanism for MGBG. Without wishing to be bound by theory, other SAMDC inhibitors which are selectively uptaken by cells may, like MGBG, be useful in the methods and compositions disclosed herein.

[2] = Day 28, raw numbers of cells, fingolimod 1 mg/kg QD, MGBG 30 mg/kg BID
[3] = Day 28, fingolimod 1 mg/kg QD, MGBG 30 mg/kg BID
[4] = male, Sprague Dawley, iv, 1 mg/kg
[5] = male, Sprague Dawley, po, 10 mg/kg

Which “production of PGE2 (inflammatory and basal levels)” value ([1]; rat pouch fluid, 3 or 24 hours post-carrageenan, naproxen 10 mg/kg, dexamethasone 1 mg/kg) does the source give for `CC(/C=N/NC(=N)N)=N\NC(=N)N` [MGBG, 1,1′ [methylethanediylidene]dinitrilodiguanidine] here?
The value was “selectively inhibited peak inflammatory production of PGE2, without affecting basal levels”.

And the “efficacy, changes relative to control indicative of reduced inflammation” value ([1]; rats, MGBG 1-60 mg/kg PO once daily 6 days)?
The value was “efficacious”.

What about the “CD4+ IFNy+ cells” value (CNS-infiltrating cells; [2]) of the same compound?
Its value is 20.40 +/− 10^3.

And the “CD4+ IL-17A+ cells” value (CNS-infiltrating cells; [2])?
The value was 23.55 +/− 10^3.

What about the “CD4+ cells” value (CNS-infiltrating cells; [2]) of the same compound?
The value was 152.11 +/− 10^3.

What about the “CD11b+ CD206+ cells” value (CNS-infiltrating cells; [2]) of the same compound?
Its value is 1.92 +/− 10^3.

And the “CD11b+ IL10+ cells” value (CNS-infiltrating cells; [2])?
The value was 3.37 +/− 10^3.

What about the “CD11b+ cells” value (CNS-infiltrating cells; [2]) of the same compound?
Its value is 137.88 +/− 10^3.

And the “CD45.2 high CD4− CD11c+ cells” value (CNS-infiltrating cells; [2])?
Its value is 11.90 +/− 10^3.

What about the “CD45.2 high CD11b− IL12+ cells” value (CNS-infiltrating cells; [2]) of the same compound?
Its value is 0.21 +/− 10^3.

What about the “IL12+ cells” value (CNS-infiltrating cells; [2]) of the same compound?
The value was 0.89 +/− 10^3.

What about the “# of IL12+ cells (10^3)” value (CNS-infiltrating cells; [3]) of the same compound?
The value was 0.89 +/− 10^3.

And the “% CD4+ IFNγ+ cells” value (CNS-infiltrating cells; [3])?
Its value is 15.85%.

And the “% CD11c+ of CD45.2 high CD4− cells” value (CNS-infiltrating cells; [3])?
Its value is 7.21%.

And the “% CD206+ of CD11b+ cells” value (CNS-infiltrating cells; [3])?
The value was 1.39%.

What about the “% IL10+ of CD11b+ cells” value (CNS-infiltrating cells; [3]) of the same compound?
Its value is 2.37%.

What about the “% IL12+ of CD45.2 high CD11b− cells” value (CNS-infiltrating cells; [3]) of the same compound?
Its value is 0.06%.

What about the “% IL-17A+ cells of CD4+ cells” value (CNS-infiltrating cells; [3]) of the same compound?
The value was 15.24%.

What about the “% of CD4+ cells” value (CNS-infiltrating cells; [3]) of the same compound?
The value was 28.50%.

And the “% of CD11b+ cells” value (CNS-infiltrating cells; [3])?
Its value is 27.86%.

What about the “CNS CD11c+ dendritic cells” value (CNS-infiltrating cells; FIG. 8 A) of the same compound?
The value was “reduces; also recorded: significantly reduced relative and absolute number”.

What about the “IL12+ dendritic cells / IL-12-producing cells” value (CNS-infiltrating cells; FIG. 8 B) of the same compound?
The value was “reduces; also recorded: significantly reduced number”.

What about the Th1 (CNS-infiltrating cells; FIG. 9 A) of the same compound?
Its Th1 is “reduces”.

And the M1 macrophages (CNS-infiltrating cells; FIG. 9 B)?
The M1 macrophages was “reduces”.

What about the Clobs (in vivo; [4]) of the same compound?
The Clobs was 13.4 mL/min/kg.

What about the VSSobs (in vivo; [4]) of the same compound?
The VSSobs was 15.4 L/kg.

And the Clobs (in vivo; [5])?
Its Clobs is 3.18 mL/min/kg.

What about the Vd (in vivo; [5]) of the same compound?
Its Vd is 15.4 L/kg.

And the “time point through which MGBG levels were measurable in plasma” value (in vivo; [5])?
Its value is 12 h.

What about the Kp (in vivo; male, Sprague Dawley, po, 10 mg/kg, greater exposure (AUCall) of liver tissue compared to plasma) of the same compound?
Its Kp is 160.

What about the Kp (in vivo; male, Sprague Dawley, po, 10 mg/kg, greater exposure (AUCall) of spleen tissue compared to plasma) of the same compound?
Its Kp is 9.3.

And the Kp (in vivo; male, Sprague Dawley, po, 10 mg/kg, greater exposure (Cmax) of liver tissue compared to plasma)?
The Kp was 120.

What about the Kp (in vivo; male, Sprague Dawley, po, 10 mg/kg, greater exposure (Cmax) of spleen tissue compared to plasma) of the same compound?
Its Kp is 4.

And the “clinical findings after dosing” value (in vivo)?
The value was “Abnormal clinical findings were not noted”.
